Experiments:
steroid sulfatase = target: T1, steroid sulfatase (Rattus norvegicus, UniProt P15589); experiment: Steroid sulfatase inhibitory activity (in vivo), liver and uterus of ovariectomized rats after oral dosing; conditions: 0.5 mg/kg p.o. once a day for seven days, ovariectomized female SD rats
T1 construct: The livers and uteri were separately minced with scissors and suspended in cooled PBS containing 250 mM sucrose; from tissue; host or cells: liver and uterus of ovariectomized female SD rats (2,000 x g supernatant of homogenate)
T1 sequence (P15589 20-577): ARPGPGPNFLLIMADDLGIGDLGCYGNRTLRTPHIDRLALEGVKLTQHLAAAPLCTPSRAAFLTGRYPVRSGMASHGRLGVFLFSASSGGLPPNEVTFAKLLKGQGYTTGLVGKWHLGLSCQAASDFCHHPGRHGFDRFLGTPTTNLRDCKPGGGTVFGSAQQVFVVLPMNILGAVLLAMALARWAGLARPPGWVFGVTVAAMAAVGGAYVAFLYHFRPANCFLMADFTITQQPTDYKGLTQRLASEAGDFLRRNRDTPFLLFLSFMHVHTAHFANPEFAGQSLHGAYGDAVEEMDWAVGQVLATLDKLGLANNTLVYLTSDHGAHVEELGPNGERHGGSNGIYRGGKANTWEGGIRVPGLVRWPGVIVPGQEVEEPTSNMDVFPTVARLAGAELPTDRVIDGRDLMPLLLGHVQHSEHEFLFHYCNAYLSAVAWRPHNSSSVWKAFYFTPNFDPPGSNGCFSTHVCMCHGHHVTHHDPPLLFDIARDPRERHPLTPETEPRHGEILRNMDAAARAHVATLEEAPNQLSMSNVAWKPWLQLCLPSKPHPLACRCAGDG
Procedure: (2) Measurement of Steroid Sulfatase Inhibitory Activity (in vivo):
To six/group of female SD rats which had undergone ovariectomy, the test compounds as each suspended in 0.5% polyoxyethylene (20) sorbitan monooleate (Tween 80) were orally administered once a day for seven days. On the next day of the last administration, the rats were sacrificed under ether anesthesia. The bodies were anatomized and their livers and uteri were extracted, which were washed with cooled PBS and stored below −70° C. The livers and uteri were separately minced with scissors and suspended in cooled PBS containing 250 mM sucrose. Each of the suspensions was homogenized with a homogenizer under cooling with ice, from which neclei and cell debris were eliminated by centrifugation at 2,000×g for 20 minutes (4° C.). Protein concentration of each of the supernatant was measured by Bradford's method (Anal. Biochem., 72, 248-254 (1976)).
To 2-200 μg of the supernatant protein mass and 50 μL of 60 μM estrone-3-sulfate containing about 100 nCi of [6,7-^3H]estrone-3-sulfate (purchased from Perkin Elmer Life Sciences, Boston, Mass., U.S.A.; specific activity, 40-60 Ci/mmol), PBS was added to make the total amount 150 μL, followed by incubation at 37° C. for 30 minutes. After the incubation, the amount of hydrolyzed [6,7-^3H]estrone-3-sulfate was calculated by a method similar to the in vitro measurement in (1) above. Also steroid sulfatase activity per mg of the protein was calculated, and from the amount of the hydrolyzed [6,7-^3H]estrone-3-sulfate and the calculated steroid sulfatase activity per mg of the protein, the tested compound's steroid sulfatase inhibitory rate was determined.

[1] = tested on: Chinese hamster lung fibroblast cells (CHL/IU cells); experiment: Chromosome aberration test using mammals' cultured cells; format: cell-based; conditions: short time and continuous treatment, negative = 5% or less
Procedure: (7) Chromosome Aberration Test Using Mammals' Cultured Cells, for Examining Genetic Toxicity: Presence of clastogenic activity of the test compounds on cultured cells was examined by a chromosome aberration test using mammals' cultured cells (Mutat. Res., 48, 337-354). The test was conducted by short time treatment method and continuous treatment method, using Chinese hamster lung fibroblast cells (CHL/IU cells). […] After the end of the culture, the medium was removed and 5 mL of a fresh medium containing solvent or a test compound at the concentration levels designed as above was added to the dishes where the continuous treatment was intended. In the short time treatment in which no S9mix was added, 3 ML of the fresh medium similar to the above was added, and where S9mix was added, 3 mL of a fresh medium formed by adding 0.5 mL of S9mix to 2.5 mL of the fresh medium similar to the above was added to the respective dishes. […] In the continuous treatment, the culture time was increased to 24 hours. In both the short time treatment and continuous treatment, 50 μL of 10 μg/mL colcemide solution was added at two hours preceding the end of the culture. After the end of the culture, the cells were detached by 0.25% trypsine solution and transferred into a centifugation tube. […]

SMILES: NS(=O)(=O)Oc1ccc(N2CCN(CCCC3CCCCC3)CC2)cc1F [Example 24, 4-[4-(3-cyclohexylpropyl)piperazin-1-yl]-2-fluorophenyl-O-sulfamate]
- Inhibitiory rate (0.5 mg/kg, p.o., %) Liver (steroid sulfatase; liver): 98.30%
- Inhibitiory rate (0.5 mg/kg, p.o., %) Uterus (steroid sulfatase; uterus): 97.87%
- Chromosome aberration test: Numerical abnormality [1]: negative
- Chromosome aberration test: Structural abnormality [1]: negative

Source: patent US7449466B2, “Cyclic aminophenyl sulfamate derivative” (Aska Pharmaceutical Co., Ltd., priority 2003, dated 2008)
